In patent US12319672B2, “Alpha-D-galactopyranoside derivatives” (Idorsia Pharmaceuticals Ltd, priority 2019, dated 2025):

Columns and labels:
human Gal-1 (hGal-1) = experiment: Competitive binding assay: binding of biotinylated hGal-1 to microplate-adsorbed asialofetuin (ASF); details: Activities on hGal-1; mean values of several measurements
Outline: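 Compounds diluted in DMSO competed with biotinylated hGal-3 or hGal-1 (300-1000 ng/mL) for binding to plate-adsorbed asialofetuin for 3 h at 4° C. Bound galectin was detected with streptavidin-peroxidase (80 ng/mL, 1 h, 4° C) and ABTS substrate; IC50 reported as mean of several measurements.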

human Gal-3 (hGal-3) = human Gal-3 (hGal-3) (Homo sapiens (Human), UniProt P17931); experiment: Competitive binding assay: binding of biotinylated hGal-3 to microplate-adsorbed asialofetuin (ASF); details: Activity on hGal-3; mean values of several measurements
human Gal-3 (hGal-3), sequence (P17931 whole entry): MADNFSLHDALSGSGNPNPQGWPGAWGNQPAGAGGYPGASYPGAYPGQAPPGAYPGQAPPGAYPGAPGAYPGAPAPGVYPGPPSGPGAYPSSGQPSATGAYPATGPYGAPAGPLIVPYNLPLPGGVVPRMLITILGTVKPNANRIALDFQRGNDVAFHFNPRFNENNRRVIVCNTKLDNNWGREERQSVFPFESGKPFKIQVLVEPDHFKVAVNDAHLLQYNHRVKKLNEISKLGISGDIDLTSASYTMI
Outline: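 Biotin-hGal-3/hGal-1 300-1000 ng/mL + cpd (DMSO dilutions) on ASF-coated plate, 3 h 4° C; wash; SA-HRP 80 ng/mL 1 h 4° C; wash; ABTS. IC50 = mean of several runs. hGal-1 preferably Cys→Ser (all six) mutant.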

human Gal-1 (hGal-1), sequence (P09382 2-135 limits assumed): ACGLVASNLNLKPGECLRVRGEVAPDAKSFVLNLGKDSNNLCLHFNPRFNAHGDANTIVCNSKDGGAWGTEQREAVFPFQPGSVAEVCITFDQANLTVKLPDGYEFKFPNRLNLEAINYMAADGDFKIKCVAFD

Row | SMILES | IC50 (human Gal-1 (hGal-1)) | IC50 (human Gal-3 (hGal-3))
1 | COc1cc(C2=NOC(C[C@H]3O[C@H](CO)[C@H](O)[C@H](n4cc(-c5cc(F)c(F)c(F)c5)nn4)[C@H]3O)C2)ccn1 (stereo partly shown) [Ex 1.24] | 13.3 µM | 800 nM
2 | CC(C)(C)OC(=O)N1CCC(C2=NOC(C[C@H]3O[C@H](CO)[C@H](O)[C@H](n4cc(-c5cc(F)c(F)c(F)c5)nn4)[C@H]3O)C2)CC1 (stereo partly shown) [Ex 1.45] | 1.02 µM | 110 nM
3 | OC[C@H]1O[C@H](Cc2cc(C3CCOCC3)on2)[C@H](O)[C@@H](n2cc(-c3cc(F)c(F)c(F)c3)nn2)[C@H]1O [Ex 1.60] | 6.97 µM | 290 nM
4 | CO[C@@H]1[C@@H](n2cc(-c3cc(F)c(C)cc3F)nn2)[C@@H](O)[C@@H](CO)O[C@@H]1Cc1cc(C2CCCCC2)on1 [Ex 1.248] | > 100 µM | 700 nM
5 | OC[C@H]1O[C@H](CC2CC(c3cccc(Cl)c3)=NO2)[C@H](O)[C@@H](n2cc(-c3cc(F)c(F)c(F)c3)nn2)[C@H]1O (stereo partly shown) [Ex 1.18] | 14.1 µM | 970 nM
6 | CC(C)(C)OC(=O)N1CCC(C2=NOC(C[C@H]3O[C@H](CO)[C@H](O)[C@H](n4cc(-c5cc(F)c(F)c(F)c5)nn4)[C@H]3OCC(=O)O)C2)CC1 (mixture of isomers) [Example 2.34, 2-(((2R,3R,4S,5R,6R)-2-(((RS)-3-(1-(tert-butoxycarbonyl)piperidin-4-yl)-4,5-dihydroisoxazol-5-yl)methyl)-5-hydroxy-6-(hydroxymethyl)-4-(4-(3,4,5-trifluorophenyl)-1H-1,2,3-triazol-1-yl)tetrahydro-2H-pyran-3-yl)oxy)acetic acid] | 1.19 µM | 68 nM

Now from value to compound:

Row | IC50 (human Gal-1 (hGal-1)) | IC50 (human Gal-3 (hGal-3)) | SMILES
7 | 3.88 µM | 36 nM | CO[C@@H]1[C@@H](n2cc(-c3cc(F)c(F)c(F)c3)nn2)[C@@H](O)[C@@H](CO)O[C@@H]1Cc1cn(C2CCSCC2)nn1 [Example 4.14, (2R,3R,4S,5R,6R)-2-(hydroxymethyl)-5-methoxy-6-((1-(tetrahydro-2H-thiopyran-4-yl)-1H-1,2,3-triazol-4-yl)methyl)-4-(4-(3,4,5-trifluorophenyl)-1H-1,2,3-triazol-1-yl)tetrahydro-2H-pyran-3-ol]
8 | 4.58 µM | 130 nM | CC(C)(C)c1cc(C[C@H]2O[C@H](CO)[C@H](O)[C@H](n3cc(-c4cc(F)c(F)c(F)c4)nn3)[C@H]2OCC(=O)N2CC(O)C2)no1 [Example 2.40, 2-(((2R,3R,4S,5R,6R)-2-((5-(tert-butyl)isoxazol-3-yl)methyl)-5-hydroxy-6-(hydroxymethyl)-4-(4-(3,4,5-trifluorophenyl)-1H-1,2,3-triazol-1-yl)tetrahydro-2H-pyran-3-yl)oxy)-1-(3-hydroxyazetidin-1-yl)ethan-1-one]
9 | 0.3 µM | 330 nM | CO[C@@H]1[C@@H](n2cc(-c3cc(F)c(F)c(F)c3)nn2)[C@@H](O)[C@@H](CO)O[C@@H]1C[C@@H]1CN(C2CCN(C(C)=O)CC2)C(=O)O1 [Example 5.05, (R)-3-(1-acetylpiperidin-4-yl)-5-(((2R,3R,4S,5R,6R)-5-hydroxy-6-(hydroxymethyl)-3-methoxy-4-(4-(3,4,5-trifluorophenyl)-1H-1,2,3-triazol-1-yl)tetrahydro-2H-pyran-2-yl)methyl)oxazolidin-2-one]
10 | 3.06 µM | 330 nM | CO[C@@H]1[C@@H](n2cc(-c3cc(F)c(F)c(F)c3)nn2)[C@@H](O)[C@@H](CO)O[C@@H]1Cn1cc(C2(O)CCCCC2)nn1 [Example 4.47, (2R,3R,4S,5R,6R)-6-((4-(1-hydroxycyclohexyl)-1H-1,2,3-triazol-1-yl)methyl)-2-(hydroxymethyl)-5-methoxy-4-(4-(3,4,5-trifluorophenyl)-1H-1,2,3-triazol-1-yl)tetrahydro-2H-pyran-3-ol]
11 | 0.91 µM | 150 nM | CO[C@@H]1[C@@H](n2cc(-c3cc(F)c(F)c(F)c3)nn2)[C@@H](O)[C@@H](CO)O[C@@H]1CN1CN(C2CCN(C(C)=O)CC2)CC1=O [Example 6.07, 1-(1-acetylpiperidin-4-yl)-3-(((2R,3R,4S,5R,6R)-5-hydroxy-6-(hydroxymethyl)-3-methoxy-4-(4-(3,4,5-trifluorophenyl)-1H-1,2,3-triazol-1-yl)tetrahydro-2H-pyran-2-yl)methyl)imidazolidin-4-one]
